# Reference: ChEMBL document CHEMBL1201862, “PubChem BioAssay data set” (2004)
# “And” between values parts separate entries of the source, which are not always exact repeats. Equal entries are not always repeated.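 Grown in 96-well plates, cells were treated for 48 hours with each compound at five concentrations. Insufficient inhibition: endpoint recorded as highest concentration tested. Abbreviation: GI50, concentration required for 50% inhibition of growth.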 The source made the active and inactive calls. Cut-off read from the data, not from the text of the source: active = GI50 up to about 1.1 µM and inactive = higher.
# How the values were obtained:
# Experiment in all cases: NCI anticancer screen, dose series, 48 h
# [1] = test system: DMS-114
# [2] = test system: KM-20L2
# [3] = test system: HOP-18
# [4] = test system: SNB-78
# [5] = test system: M19-MEL
# [6] = test system: XF498
# [7] = test system: DLD-1
# [8] = test system: LXFL 529
# [9] = test system: RXF 631
SMILES,GI50 [1],GI50 [2],GI50 [3],GI50 [4],GI50 [5],GI50 [6],GI50 [7],GI50 [8],GI50 [9]
Clc1ccc(C2N3CCCCC3[C@@H]3c4[nH]c5ccccc5c4CCN23)cc1 (stereo not given in full),37.3 µM (inactive),30.7 µM (inactive),> 100 µM (inactive),37.8 µM (inactive),23.6 µM (inactive),64.4 µM (inactive),56.8 µM (inactive),38.1 µM (inactive),
O=[N+]([O-])c1ccc2occ3c2c1CCC3,> 100 µM (inactive),,,> 100 µM (inactive),> 100 µM (inactive),,> 100 µM (inactive),> 100 µM (inactive),
O=c1c2ccccc2c(=O)n2n1CC=CC2,> 100 µM (inactive),> 100 µM (inactive),> 100 µM (inactive),> 100 µM (inactive),> 100 µM (inactive),,> 100 µM (inactive),> 100 µM (inactive),
CC(C)(C)CC(C)(C)c1cc2c(O)c(c1)Cc1cc(C(C)(C)CC(C)(C)C)cc(c1O)Cc1cc(C(C)(C)CC(C)(C)C)cc(c1O)Cc1cc(C(C)(C)CC(C)(C)C)cc(c1O)C2,> 100 µM (inactive),> 100 µM (inactive),,> 100 µM (inactive),> 100 µM (inactive),> 100 µM (inactive),> 100 µM (inactive),> 100 µM (inactive),> 100 µM (inactive)
Clc1cccc(C2SCc3nc4ccccc4n32)c1Cl (stereo not given),20.7 µM (inactive),19.4 µM (inactive),18.1 µM (inactive),38.1 µM (inactive),12.5 µM (inactive),16 µM (inactive),16.6 µM (inactive),15.9 µM (inactive),
CCn1c2ccccc2c2ccc3c(c21)C(=O)c1ccccc1C3=O,> 100 µM (inactive),> 100 µM (inactive),> 100 µM (inactive),> 100 µM (inactive),24.2 µM (inactive),> 100 µM (inactive),> 100 µM (inactive),> 100 µM (inactive),
CC(=O)OC1C/C(C)=C/CCC(C)/C=C/C2(C)CCC(C(C)(C)O)C12 (stereo not given),34.6 µM (inactive),49.4 µM (inactive),> 100 µM (inactive),61.9 µM (inactive),28.9 µM (inactive),39.4 µM (inactive),45.1 µM (inactive),58.5 µM (inactive),
Cc1ccc(/C=C/C(=O)c2ccc(Cl)c(Cl)c2)cc1,,> 100 µM (inactive),63.1 µM (inactive),> 100 µM (inactive),,> 100 µM (inactive),> 100 µM (inactive),> 100 µM (inactive),> 100 µM (inactive)
C1CCN(c2nc(=[N+]3CCCCC3)ss2)CC1,31.1 µM (inactive),> 100 µM (inactive),> 100 µM (inactive),> 100 µM (inactive),> 100 µM (inactive),> 100 µM (inactive),> 100 µM (inactive),> 100 µM (inactive),> 100 µM (inactive)
O=C1C=Cc2c(-c3ccccc3)oc3cccc1c23,17.8 µM (inactive),27.2 µM (inactive),15 µM (inactive),48.3 µM (inactive),23 µM (inactive),7.28 µM (inactive),13.2 µM (inactive),22.8 µM (inactive),10.4 µM (inactive)
COC(=O)[C@@H]1[C@H](O)[C@H](C)[C@H](O)[C@@](C)(O)/C=C\C=C(\C)C(=O)Nc2c(C)c(OC(C)=O)c3c(c2O)C(=O)C(C)=C2OCOC(=C23)/C(C)=C/[C@@](C)(O)[C@H](O)[C@@H](C)[C@H]1OC(C)=O,33.2 µM (inactive) and 624 nM (active),57.1 µM (inactive),30.6 µM (inactive),> 66.8 µM (inactive),11.5 µM (inactive),,22.4 µM (inactive),57.4 µM (inactive),
CCOc1ccc(/N=N/c2c(-c3ccccc3)nn(C(=O)CC(=O)Nc3ccccc3Cl)c2-c2ccccc2)cc1,23 µM (inactive),56.4 µM (inactive),> 100 µM (inactive),51.4 µM (inactive),54.8 µM (inactive),28.4 µM (inactive),45.2 µM (inactive),76 µM (inactive),
Cc1ccccc1NC(=O)CC1C(=O)Nc2ccccc2[S+]1[O-] (stereo not given),> 100 µM (inactive),> 100 µM (inactive),,> 100 µM (inactive),> 100 µM (inactive),96.6 µM (inactive),> 100 µM (inactive),> 100 µM (inactive),93.8 µM (inactive)
O=C1CCNC(=O)NC1,> 100 µM (inactive),> 100 µM (inactive),> 100 µM (inactive),> 100 µM (inactive),> 100 µM (inactive),> 100 µM (inactive),> 100 µM (inactive),> 100 µM (inactive),> 100 µM (inactive)
N=C1N(c2ccccc2)C(=O)C23CCCC2C13N1CCOCC1 (stereo not given),> 100 µM (inactive),> 100 µM (inactive),> 100 µM (inactive),> 100 µM (inactive),> 100 µM (inactive),,> 100 µM (inactive),> 100 µM (inactive),> 100 µM (inactive)
CC(NC(=O)c1ccccc1)C(=O)N(Cc1ccccc1)Cc1ccccc1 (stereo not given),19 µM (inactive),26.2 µM (inactive),,27.7 µM (inactive),24.4 µM (inactive),,31.4 µM (inactive),18.4 µM (inactive),
Nc1nc2c3nc(Nc4ccccc4)sc3nc(=O)n2c2sc(Nc3ccccc3)nc12,,> 100 µM (inactive),> 100 µM (inactive),> 100 µM (inactive),> 100 µM (inactive),> 100 µM (inactive),> 100 µM (inactive),> 100 µM (inactive),
CCOC(=N)CC(=O)Nc1ccccc1,35.8 µM (inactive),> 100 µM (inactive),> 31.6 µM (inactive),> 46.5 µM (inactive),> 46.5 µM (inactive),> 43.9 µM (inactive),> 46.5 µM (inactive),> 46.5 µM (inactive),
CCCCCCC(C)CCCCCCCCCCC(=O)O (stereo not given),> 100 µM (inactive),> 100 µM (inactive),> 100 µM (inactive),,> 100 µM (inactive),> 100 µM (inactive),> 100 µM (inactive),> 100 µM (inactive),> 100 µM (inactive)
COc1cccc2c1C(=O)c1c(O)c3c(c(O)c1C2=O)C[C@@](O)(C(=O)CO)C[C@@H]3OC1CC(N(C)C)C(O)C(C)O1 (stereo not given in full),,0.0367 µM (active),0.0805 µM (active),0.0453 µM (active),,0.0149 µM (active),< 0.0157 µM (active),< 0.0174 µM (active),
CN(C)CCNc1nc(-c2cccs2)cc(-c2cccs2)n1,8.73 µM (inactive),,< 0.01 µM (active),16.9 µM (inactive),,3.39 µM (inactive),22.5 µM (inactive),14.8 µM (inactive),
CC1(C)C(=O)CCC(=O)C(C)(C)C2=CC=C(O2)C(C)(C)C(=O)CCC(=O)C(C)(C)C2=CC=C1O2,,> 100 µM (inactive),> 100 µM (inactive),> 100 µM (inactive),> 100 µM (inactive),,,> 100 µM (inactive),
